Patent US10323022B2, “Pyrrolidinyl urea, pyrrolidinyl thiourea and pyrrolidinyl guanidine compounds as TrkA kinase inhibitors” (Array BioPharma Inc., priority 2011, dated 2019)

Molecular target: TrkA (Homo sapiens (Human), UniProt P04629)
Experiment: TrkA Omnia Assay
Format: biochemical
Details: averaged IC50; 20 nM enzyme, 500 μM ATP, 10 μM peptide substrate
Method in brief: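 Continuous fluorescent kinase read-out (ex 360 nm, em 485 nm) over 70 min, with initial rates fitted to 4- or 5-parameter logistic curves for IC50. Final conditions: 500 μM ATP, 10 μM Omnia Tyr Peptide #4, 20 nM TrkA, MOPS pH 7.5 buffer with MgCl2 and Triton X-100; enzyme and compound preincubated 10 min at ambient temperature.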

Chain of TrkA (P04629 33-796): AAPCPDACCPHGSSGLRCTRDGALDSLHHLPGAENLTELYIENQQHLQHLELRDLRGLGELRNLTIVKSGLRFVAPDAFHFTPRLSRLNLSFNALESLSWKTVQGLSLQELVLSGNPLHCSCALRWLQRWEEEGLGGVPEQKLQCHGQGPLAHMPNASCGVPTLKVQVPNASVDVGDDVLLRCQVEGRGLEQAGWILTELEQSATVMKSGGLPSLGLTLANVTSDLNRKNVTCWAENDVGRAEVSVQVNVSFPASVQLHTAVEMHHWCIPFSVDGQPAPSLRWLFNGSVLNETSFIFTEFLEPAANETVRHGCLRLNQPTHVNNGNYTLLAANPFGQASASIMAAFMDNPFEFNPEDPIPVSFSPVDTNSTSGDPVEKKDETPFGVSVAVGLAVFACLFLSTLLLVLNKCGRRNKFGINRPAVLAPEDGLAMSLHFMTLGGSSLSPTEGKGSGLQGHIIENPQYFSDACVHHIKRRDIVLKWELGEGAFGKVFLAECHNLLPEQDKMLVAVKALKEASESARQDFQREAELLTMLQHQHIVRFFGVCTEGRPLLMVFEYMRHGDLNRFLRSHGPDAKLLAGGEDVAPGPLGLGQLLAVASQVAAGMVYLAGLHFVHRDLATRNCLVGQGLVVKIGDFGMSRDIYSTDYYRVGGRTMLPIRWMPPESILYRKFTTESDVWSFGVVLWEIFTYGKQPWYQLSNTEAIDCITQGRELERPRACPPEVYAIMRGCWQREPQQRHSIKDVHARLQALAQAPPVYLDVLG

Row | Structure (SMILES) | IC50 [nM]
1 | COCCN1C[C@@H](NC(=O)Nc2c(Br)c(COC)nn2-c2ccccc2)[C@H](c2cc(F)cc(F)c2)C1 [Example 406, 1-(4-bromo-3-(methoxymethyl)-1-phenyl-1H-pyrazol-5-yl)-3-((3S,4R)-4-(3,5-difluorophenyl)-1-(2-methoxyethyl)pyrrolidin-3-yl)urea] | < 100
2 | COCCN1C[C@@H](NC(=O)Nc2c3c(nn2-c2ccccc2)CSC3)[C@H](c2ccc(F)c(F)c2)C1 [Example 91, 1-((3S,4R)-4-(3,4-difluoro-phenyl)-1-(2-methoxyethyl)pyrrolidin-3-yl)-3-(2-phenyl-4,6-dihydro-2H-thieno[3,4-c]pyrazol-3-yl) urea] | < 100
3 | COCCN1C[C@@H](NC(=O)Nc2c(Br)c(-c3c(C)noc3C)nn2-c2ccccc2)[C@H](c2ccc(F)c(F)c2)C1 [Example 577, 1-(4-bromo-3-(3,5-dimethylisoxazol-4-yl)-1-phenyl-1H-pyrazol-5-yl)-3-((3S,4R)-4-(3,4-difluorophenyl)-1-(2-methoxyethyl)pyrrolidin-3-yl)urea] | < 100
4 | COCCN1C[C@@H](NC(=O)Nc2cc(-c3ccc(C(=O)OC)cc3)nn2C)[C@H](c2ccc(F)c(F)c2)C1 [Example 121, methyl 4-(5-(3-((3S,4R)-4-(3,4-difluorophenyl)-1-(2-methoxyethyl)pyrrolidin-3-yl)ureido)-1-methyl-1H-pyrazol-3-yl)benzoate] | < 100
5 | COCCN1C[C@@H](NC(=O)Nc2c(Cl)c(-c3ccccn3)nn2-c2ccccc2)[C@H](c2ccc(F)c(F)c2)C1 [Example 480, 1-(4-chloro-1-phenyl-3-(pyridin-2-yl)-1H-pyrazol-5-yl)-3-((3 S,4R)-4-(3,4-difluorophenyl)-1-(2-methoxyethyl)pyrrolidin-3-yl)urea] | < 100
6 | COCCN1C[C@@H](NC(=O)Nc2c(Cl)c(C3CCOCC3)nn2-c2ccccc2)[C@H](c2ccc(F)c(F)c2)C1 [Example 568, 1-(4-chloro-1-phenyl-3-(tetrahydro-2H-pyran-4-yl)-1H-pyrazol-5-yl)-3-((3S,4R)-4-(3,4-difluorophenyl)-1-(2-methoxyethyl)pyrrolidin-3-yl)urea] | < 100
7 | COCCN1C[C@@H](NC(=O)Nc2c(C)c(OC[C@H](C)O[Si](C)(C)C(C)(C)C)nn2-c2ccccc2)[C@H](c2cc(F)c(F)c(F)c2)C1 [Example 400, 1-(3-((S)-2-(tert-butyldimethylsilyloxy)propoxy)-4-methyl-1-phenyl-1H-pyrazol-5-yl)-3-((3S,4R)-1-(2-methoxyethyl)-4-(3,4,5-trifluorophenyl)pyrrolidin-3-yl)urea] | 100 to 1000
8 | COCCN1C[C@@H](NC(=O)Nc2c(C)c(OC[C@@H](O)CO)nn2-c2ccccc2)[C@H](c2cc(F)c(F)c(F)c2)C1 [Example 560, 1-(3-((S)-2,3-dihydroxvpropoxy)-4-methyl-1-phenyl-1H-pyrazol-5-yl)-3-((3S,4R)-1-(2-methoxyethyl)-4-(3,4,5-trifluorophenyl)pyrrolidin-3-yl)urea] | < 100
9 | COCCN1C[C@@H](NC(=O)Nc2c(C)c(-c3cnn(C)c3)nn2-c2ccccc2F)[C@H](c2ccc(F)c(F)c2)C1 [Example 314, 1-((3S,4R)-4-(3,4-difluorophenyl)-1-(2-methoxyethyl)pyrrolidin-3-yl)-3-(1-(2-fluorophenyl)-1′,4-dimethyl-1H,1′H-[3,4′-bipyrazol]-5-yl)urea] | < 100
10 | COCCN1C[C@@H](NC(=O)Nc2c3c(nn2-c2ccccc2)CCC3)[C@H](c2ccc(F)c(F)c2)C1 (relative stereo) [Example 3, trans-1-(4-(3,4-difluorophenyl)-1-(2-methoxyethyl)pyrrolidin-3-yl)-3-(2-phenyl-2,4,5,6-tetrahydrocyclopenta[c]pyrazol-3-yl)urea] | < 100
11 | CCOc1nn(-c2ccccc2)c(NC(=O)N[C@@H]2CN(c3c(F)cccc3F)C[C@H]2c2ccccc2)c1C [Example 240, 1-((3S,4R)-1-(2,6-difluorophenyl)-4-phenylpyrrolidin-3-yl)-3-(3-ethoxy-4-methyl-1-phenyl-1H-pyrazol-5-yl)urea] | 100 to 1000
12 | COCCN1C[C@@H](NC(=O)Nc2c(Br)c(OC[C@@H](C)O)nn2-c2ccccc2)[C@H](c2ccc(F)cc2)C1 [Example 377, 1-(4-bromo-3-((R)-2-hydroxypropoxy)-1-phenyl-1H-pyrazol-5-yl)-3-((3S,4R)-4-(4-fluorophenyl)-1-(2-methoxyethyl)pyrrolidin-3-yl)urea] | < 100
13 | COCCN1C[C@@H](NC(=O)Nc2c(Cl)c([C@H]3CCCN3C(=O)OC(C)(C)C)nn2-c2ccccc2)[C@H](c2ccc(F)c(F)c2)C1 [Example 572, (R)-tert-butyl 2-(4-chloro-5-(3-((3S,4R)-4-(3,4-difluorophenyl)-1-(2-methoxyethyl)pyrrolidin-3-yl)ureido)-1-phenyl-1H-pyrazol-3-yl)pyrrolidine-1-carboxylate] | 100 to 1000
14 | COCCN1C[C@@H](NC(=O)Nc2c(Cl)c(-c3ccccc3)nn2C)[C@H](c2ccc(F)c(F)c2)C1 [Example 67, 1-(4-chloro-1-methyl-3-phenyl-1H-pyrazol-5-yl)-3-((3S,4R)-4-(3,4-difluorophenyl)-1-(2-methoxyethyl)pyrrolidin-3-yl)urea] | 100 to 1000
15 | Cc1nn(-c2ccccc2)c(NC(=O)N[C@@H]2CN(c3cn[nH]c3)C[C@H]2c2cc(F)cc(F)c2)c1C [Example 223, 1-((3S,4R)-4-(3,5-difluoro-phenyl)-1-(1H-pyrazol-4-yl)pyrrolidin-3-yl)-3-(3,4-dimethyl-1-phenyl-1H-pyrazol-5-yl)urea] | < 100
16 | COCCN1C[C@@H](NC(=O)Nc2c(C)c(OC[C@H]3COC(C)(C)O3)nn2-c2ccccc2)[C@H](c2ccc(F)c(F)c2)C1 [Example 76, 1-((3S,4R)-4-(3,4-difluorophenyl)-1-(2-methoxyethyl)pyrrolidin-3-yl)-3-(3-(((S)-2,2-dimethyl-1,3-dioxolan-4-yl)methoxy)-4-methyl-1-phenyl-1H-pyrazol-5-yl)urea] | < 100
17 | CCOc1nn(-c2ccccc2)c(NC(=O)N[C@@H]2CN([C@@H](CO)C(F)(F)F)C[C@H]2c2ccc(F)c(F)c2)c1C [Example 275, 1-((3S,4R)-4-(3,4-difluorophenyl)-1-((S)-1,1,1-trifluoro-3-hydroxypropan-2-yl)pyrrolidin-3-yl)-3-(3-ethoxv-4-methyl-1-phenyl-1H-pyrazol-5-yl)urea] | 100 to 1000
18 | COCCN1C[C@H](NC(=O)Nc2c3c(nn2-c2ccccc2)CCC3)[C@@H](c2cncc(F)c2)C1 [Example 338, 1-((3R,4S)-4-(5-fluoropyridin-3-yl)-1-(2-methoxyethyl)pyrrolidin-3-yl)-3-(2-phenyl-2,4,5,6-tetrahydrocyclopenta[c]pyrazol-3-yl)urea] | < 100

Results, then the molecule that gave them:

Row | IC50 [nM] | Structure (SMILES)
19 | < 100 | COCCN1C[C@@H](NC(=O)Nc2c(Br)c(COC)nn2-c2ccccc2)[C@H](c2ccc(F)cc2)C1 [Example 408, 1-(4-bromo-3-(methoxymethyl)-1-phenyl-1H-pyrazol-5-yl)-3-((3S,4R)-4-(4-fluorophenyl)-1-(2-methoxyethyl)pyrrolidin-3-yl)urea]
20 | < 100 | COCCN1C[C@@H](NC(=O)Nc2c(C)c(-c3ccn(C)n3)nn2-c2ccccc2)[C@H](c2ccc(F)c(F)c2)C1 [Example 491, 1-((3S,4R)-4-(3,4-difluorophenyl)-1-(2-methoxyethyl)pyrrolidin-3-yl)-3-(1′,4-dimethyl-1-phenyl-1H,1′H-[3,3′-bipyrazol]-5-yl)urea]
21 | < 100 | COCCN1C[C@@H](NC(=O)Nc2c(C)c(OCCS(C)(=O)=O)nn2-c2ccccc2)[C@H](c2ccc(F)c(F)c2)C1 [Example 174, 1-((3S,4R)-4-(3,4-difluorophenyl)-1-(2-methoxyethyl)pyrrolidin-3-yl)-3-(4-methyl-3-(2-(methylsulfonyl)ethoxy)-1-phenyl-1H-pyrazol-5-yl)urea]
22 | 100 to 1000 | COc1cccc([C@@H]2CN(CC(F)(F)F)C[C@H]2NC(=O)Nc2c3c(nn2-c2ccccc2)CCC3)c1 (relative stereo) [Example 207, 1-((trans)-4-(3-methoxyphenyl)-1-(2,2,2-trifluoroethyl)pyrrolidin-3-yl)-3-(2-phenyl-2,4,5,6-tetrahydrocyclopenta[c]pyrazol-3-yl)urea]
23 | < 100 | COCCN1C[C@@H](NC(=O)Nc2c(Cl)c([C@H]3C[C@H](O)C3)nn2-c2ccccc2)[C@H](c2ccc(F)c(F)c2)C1 [Example 453, 1-(4-chloro-3-((1r,3S)-3-hydroxycyclobutyl)-1-phenyl-1H-pyrazol-5-yl)-3-(trans-4-(3,4-difluorophenyl)-1-(2-methoxyethyl)pyrrolidin-3-yl)urea]
24 | < 100 | COCCN1C[C@@H](NC(=O)Nc2c(C)c(=O)[nH]n2-c2ccccc2)[C@H](c2ccc(Cl)c(F)c2)C1 (relative stereo) [Example 609, 1-((trans)-4-(4-chloro-3-fluorophenyl)-1-(2-methoxyethyl)pyrrolidin-3-yl)-3-(4-methyl-5-oxo-2-phenyl-2,5-dihydro-1H-pyrazol-3-yl)urea]
25 | < 100 | Cc1c(OCC(C)(C)O)nn(-c2ccccc2)c1NC(=O)N[C@@H]1CN(c2cn[nH]c2)C[C@H]1c1ccc(F)c(F)c1 [Example 227, 1-((3S,4R)-4-(3,4-difluorophenyl)-1-(1H-pyrazol-4-yl)pyrrolidin-3-yl)-3-(3-(2-hydroxy-2-methylpropoxy)-4-methyl-1-phenyl-1H-pyrazol-5-yl)urea]
26 | < 100 | COCCN1C[C@@H](NC(=O)Nc2c(Br)c(C[C@@H](C)O)nn2-c2ccccc2)[C@H](c2ccc(F)c(F)c2)C1 [Example 414, 1-(4-bromo-3-((R)-2-hydroxypropyl)-1-phenyl-1H-pyrazol-5-yl)-3-((3S,4R)-4-(3,4-difluorophenyl)-1-(2-methoxyethyl)pyrrolidin-3-yl)urea]
27 | 100 to 1000 | CCOc1nn(-c2ccccc2)c(NC(=O)N[C@@H]2CN(CC(=O)NC)C[C@H]2c2ccc(F)c(F)c2)c1C [Example 472, 2-((3R,4S)-3-(3,4-difluorophenyl)-4-(3-(3-ethoxy-4-methyl-1-phenyl-1H-pyrazol-5-yl)ureido)pyrrolidin-1-yl)-N-methylacetamide]
